Earlier results, collected in patent US20110226621A1, “TARGET RECOGNITION MOLECULE AND A METHOD FOR IMMOBILIZING THE SAME” (Sharp Kabushiki Kaisha, priority 2009, published 2011).
Like-named read-outs stand apart in the source and are kept apart here.

Details: individual amino acid
[1] = Table 1 repeated in Example 1-1

SMILES | isoelectric point (Table 1 in summary) | isoelectric point [1]
N=C(N)NCCC[C@H](N)C(=O)O [arginine] | 10.76 | 10.76
N[C@@H](Cc1c[nH]cn1)C(=O)O [histidine] | 7.59 | 7.59
CC[C@H](C)[C@H](N)C(=O)O [isoleucine] | 6.05 | 6.05
NCCCC[C@H](N)C(=O)O [lysine] | 9.75 | 9.75
O=C(O)[C@@H]1CCCN1 [proline] | 6.30 | 6.30
N[C@@H](Cc1c[nH]c2ccccc12)C(=O)O [tryptophan] | 5.89 | 5.89
N[C@@H](Cc1ccc(O)cc1)C(=O)O [tyrosine] | 5.66 | 5.66
CC(C)[C@H](N)C(=O)O [valine] | 5.96 | 5.96

Now from value to compound:

isoelectric point (Table 1 in summary) | isoelectric point [1] | SMILES
6.00 | 6.00 | C[C@H](N)C(=O)O [alanine]
5.41 | 5.41 | NC(=O)C[C@H](N)C(=O)O [asparagine]
2.77 | 2.77 | N[C@@H](CC(=O)O)C(=O)O [aspartic acid]
5.05 | 5.05 | N[C@@H](CS)C(=O)O [cysteine]
3.22 | 3.22 | N[C@@H](CCC(=O)O)C(=O)O [glutamic acid]
5.97 | 5.97 | NCC(=O)O [glycine]
5.74 | 5.74 | CSCC[C@H](N)C(=O)O [methionine]
5.48 | 5.48 | N[C@@H](Cc1ccccc1)C(=O)O [phenylalanine]
5.68 | 5.68 | N[C@@H](CO)C(=O)O [serine]
6.16 | 6.16 | C[C@@H](O)[C@H](N)C(=O)O [threonine]
